Laboratory results reported in PMC6269873, “Substituted 3-Benzylcoumarins as Allosteric MEK1 Inhibitors: Design, Synthesis and Biological Evaluation as Antiviral Agents” (Molecules, 2013).
Read-outs that look alike come from different tables or passages of the source.

Experiments:
phosphorylated MEK1 = phosphorylated MEK1 (Homo sapiens, UniProt Q02750); assay: MEK1 binding assay (HTRF, tracer displacement); conditions: for inhibition at 2 µM: read-out: % binding (2 µM); for inhibition at 20 µM: read-out: % binding (20 µM)
Procedure: The homogeneous time resolved fluorescence (HTRF) assay was performed on a Proxiplate-384 F plus solid back plate (Perkin Elmer, Waltham, MA. USA) with 5 nM GST tagged phosphorylated MEK1 (GST-MEK1), 2 nM europium-labeled anti-GST antibody (Eu-anti-GST), 20 nM kinase tracer 236 and test compound at a variety of concentrations. In the reaction mixture, GST-MEK1 forms a complex with the Eu-anti-GST and the tracer. Excitation of europium (the donor) using a 340-nm excitation filter results in energy transfer to the fluorophore of the tracer. This energy transfer is detected by an increase in the fluorescence emission of the tracer at 665 nm and a decrease in the fluorescence emission of europium at 615 nm. The FRET ratio was calculated by dividing the emission signal at 665 nm by the emission signal at 615 nm. A competitor compound such as a MEK inhibitor replaces the tracer from the complex and decreases the FRET ratio accordingly. The plate was incubated in dark at room temperature for 30 min before measuring the fluorescent emission of each well at 665 and 615 nm using a 340-nm excitation filter, 100-µs delay time, and 200-µs integration time, on a PHERAStar plate reader (BMG Labtech, Durham, NC, USA). […] Data shown as %Inhibition normalized to AZD6244 at 100 µM.

ERK pathway = assay: cells; format: cell-based, Human; conditions: for IC50: Homo sapiens, HEK293
Procedure: The effects of the inhibitors on the activation of ERK pathway were determined in TPA (12-O-tetradecanoylphorbol-13-acetate)-stimulated cells using the AP-1 luciferase reporter gene assay system. Activating protein-1 (AP-1) is the nuclear transcription factor which is a heterodimeric protein downstream of MAPK composed of dimers of the Fos and Jun proteins. The stable AP-1 dimers bind to DNA recognition elements (AP-1 response elements) and mediate transcriptional induction. AP-1 controls a number of cellular events including differentiation, proliferation and apoptosis. Simultaneously, the expression of AP-1 can be regulated in response to different extracellular stimuli, such as cytokines, growth factors, stress, and bacterial and viral infections. ERK pathway is the most important mediator which is closely related to these responses. Activation of ERK pathway causes induction of fos gene, and then the product heterodimerizes with the Jun protein to form the AP-1 dimers. These newly formed heterodimers can enhance the expression of c-jun through AP-1 binding sites in the c-jun promoter. TPA can increase levels of AP-1 proteins through activation of the ERK pathway.
3.4.2. AP-1 Luciferase Reporter Gene Assay
pAP1-Luc was constructed with pGL3-basic (Promega, Madison, WI. USA) and a fragment including the AP-1 response element (2× TRE) and T7 promoter. HEK 293 cells in 96-well plates were cultured at 5% CO2 at 37 °C in DMEM containing 10% FBS. When the confluence was up to 80%, cells were transinfected with pAP1-Luc using lipofectamine 2000 (Life Technologies, Carlsbad, CA. USA). At 24 h post transinfection, individual compounds with different concentrations (5, 10, 20, 30 μM) were added into cells using three wells for each concentration used. After incubation for 1 h, TPA (50 nM) was added. The cells were harvested after 4 h and luciferase activity was measured by using luciferase assay kit (Promega) with a luminometer.

EV71 [1] = assay: microbe, parasite or virus in culture; conditions: for EC50: Enterovirus A, EV71, RD
Procedure: (§1) To further examine the functional effects, we selected EV71 to perform the antiviral analysis. […] CC50 is the median cytotoxic concentration measured with the MTT assay.
(§2) RD cells were cultured in DMEM and up to 70%–80% confluence in 96-well plates. Compounds were added into the culture medium for 1 h prior to virus infection using four wells for each concentration used. The compounds were added at the following concentrations: 1.25, 2.5, 5, 10, 20, 40 μM. Then cells were infected withEV71 (a clinical strain denoted as EV71-BC08, GU475127) at a multiplicity of infection (MOI) of 1. Virus controls (untreated wells of infected cells), cell controls (cells and drugs only, using the same dilution range for each compound as the test wells) were included on the plate. The cytopathic effect (CPE) were examined at every 12 h intervals post-infection by using phase-contrast microscopy. […] The cytotoxicity (CC50) was assayed by the MTT method.

EV71 [2] = assay: microbe, parasite or virus in culture; conditions: for EC50: Enterovirus A, EV71, HEK293
Procedure: as §1, §2

[3] = tested on: unphosphorylated human MEK1; parameters: method as in PMID 16199156; conditions: inhibition of activation of unphosphorylated human MEK1; cited from earlier work
[4] = HTRF binding to GST tagged phosphorylated MEK1, read-out: IC50

Chain of phosphorylated MEK1 (Q02750 whole entry): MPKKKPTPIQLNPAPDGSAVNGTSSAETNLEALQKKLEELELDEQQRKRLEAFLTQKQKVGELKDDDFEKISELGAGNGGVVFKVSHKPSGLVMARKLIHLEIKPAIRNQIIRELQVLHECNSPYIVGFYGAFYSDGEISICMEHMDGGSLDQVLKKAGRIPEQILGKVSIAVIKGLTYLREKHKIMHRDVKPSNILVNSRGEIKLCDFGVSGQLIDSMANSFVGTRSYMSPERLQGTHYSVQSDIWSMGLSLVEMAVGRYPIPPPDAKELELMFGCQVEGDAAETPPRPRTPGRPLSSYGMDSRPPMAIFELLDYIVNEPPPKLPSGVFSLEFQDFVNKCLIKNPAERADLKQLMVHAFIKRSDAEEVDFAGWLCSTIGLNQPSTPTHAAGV

Row | SMILES | melting point [°C] | IC50 (phosphorylated MEK1; [4]) [µM] | inhibition at 2 µM (phosphorylated MEK1) [%] | inhibition at 20 µM (phosphorylated MEK1) [%] | IC50 (ERK pathway) [µM] | IC50 (phosphorylated MEK1) [µM] | TI (CC50/IC50) (EV71 [1]) | EC50 (EV71 [1]) [µM] | binding affinity (in words) (phosphorylated MEK1) | TI (CC50/IC50) (EV71 [2]) | EC50 (EV71 [2]) [µM] | inhibition of ERK pathway activation (in words) (ERK pathway) | IC50 [3] [µM]
1 | CCC(=O)Oc1ccc2c(CC)c(Cc3ccccc3)c(=O)oc2c1 [Compound 36, 3-Benzyl-4-ethyl-2-oxo-2H-chromen-7-yl propionate] | 124 | 0.391 | 81 | 87 | 49.8 ± 1.24 | – | – | – | – | – | – | – | –
2 | CCCC(=O)Oc1ccc2c(CC)c(Cc3ccccc3)c(=O)oc2c1 [Compound 43, 3-Benzyl-4-ethyl-2-oxo-2H-chromen-7-yl butyrateen-7-yl propionate] | 102 | 0.473 | 45 | 54.7 | 85.9 ± 1.46 | – | – | – | – | – | – | – | –
3 | Cc1c(Cc2ccccc2)c(=O)oc2cc(OC(=O)N(C)C)c(Cl)cc12 [Compound 14, 3-Benzyl-6-chloro-4-methyl-2-oxo-2H-chromen-7-yl dimethylcarbamate] | 156 to 157 | – | 66.3 | 80.8 | 30.8 ± 1.4 | 0.307 | – | – | – | – | – | – | –
4 | CCc1c(Cc2ccc(F)cc2)c(=O)oc2cc(OC(=O)N(C)C)ccc12 [Compound 18, 4-Ethyl-3-(4-fluorobenzyl)-2-oxo-2H-chromen-7-yl dimethylcarbamate] | – | – | 98.2 | 99.4 | 23.4 ± 1.11 | 0.0546 | 7.29 | 10 | active | 3.37 | 19.4 | more efficiently than U0126 | –
5 | CCCc1c(Cc2ccc(F)cc2)c(=O)oc2cc(OC(=O)CC)ccc12 [Compound 40, 3-(4-Fluorobenzyl)-2-oxo-4-propyl-2H-chromen-7-yl propionate] | 94 to 95 | 0.176 | 72.2 | 78.5 | 87.5 ± 1.98 | – | – | – | – | – | – | – | –
6 | CCC(=O)Oc1ccc2c(C)c(Cc3ccc(F)cc3)c(=O)oc2c1 [Compound 38, 3-(4-Fluorobenzyl)-4-methyl-2-oxo-2H-chromen-7-yl propionate] | 115 to 116 | 0.19 | 75.7 | 90.8 | 38.1 ± 1.26 | – | – | – | – | – | – | – | –
7 | CCc1c(Cc2ccccc2)c(=O)oc2cc(OC(C)=O)ccc12 [Compound 29, 3-Benzyl-4-ethyl-2-oxo-2H-chromen-7-yl acetate] | 123 to 125 | 0.176 | 88.7 | 102 | 90.5 ± 1.83 | – | – | – | – | – | – | – | –
8 | CCCc1c(Cc2ccc(F)cc2)c(=O)oc2cc(OC(C)=O)ccc12 [Compound 33, 3-(4-Fluorobenzyl)-2-oxo-4-propyl-2H-chromen-7-yl acetate] | 150 to 151 | 0.252 | 61.4 | 72.2 | 11.6 ± 1.2 | – | – | 18.5 | – | – | 12.8 | more efficiently than U0126 | –
9 | Cc1c(Cc2ccccc2)c(=O)oc2cc(OC(=O)N(C)C)ccc12 [Compound 13, 3-Benzyl-4-methyl-2-oxo-2H-chromen-7-yl dimethylcarbamate] | 130 to 133 | – | 75.6 | 95.2 | 5.4 ± 1.26 | 0.223 | 60.8 | 2.5 | – | 29.85 | 3.29 | more efficiently than U0126 | –
10 | CC(=O)Oc1ccc2c(C)c(Cc3ccccc3)c(=O)oc2c1 [Compound 28, 3-Benzyl-4-methyl-2-oxo-2H-chromen-7-yl acetate] | 165 to 166 | 0.52 | 72.2 | 96.5 | 37.6 ± 1.1 | – | – | – | – | – | – | – | –
11 | CCCC(=O)Oc1ccc2c(C)c(Cc3ccccc3)c(=O)oc2c1 [Compound 42, 3-Benzyl-4-methyl-2-oxo-2H-chromen-7-yl butyrate] | 139 to 140 | 0.353 | 53.8 | 68.4 | 88.7 ± 2.52 | – | – | – | – | – | – | – | –
12 | Cc1c(Cc2ccc(F)cc2)c(=O)oc2cc(OC(=O)N(C)C)ccc12 [Compound 17, 3-(4-Fluorobenzyl)-4-methyl-2-oxo-2H-chromen-7-yl dimethylcarbamate] | 149 to 150 | – | 71.6 | 82.1 | 4.06 ± 3.26 | 0.408 | 16.36 | 5.25 | – | – | – | more efficiently than U0126 | –
13 | CCCc1c(Cc2ccc(F)cc2)c(=O)oc2cc(OC(=O)N(C)C)ccc12 [Compound 19, 3-(4-Fluorobenzyl)-2-oxo-4-propyl-2H-chromen-7-yl dimethylcarbamate] | 82 to 84 | – | 66.2 | 87.6 | 4.31 ± 2.14 | 0.158 | 190 | 3.98 | – | 65.24 | 4.85 | more efficiently than U0126 | –
14 | CCc1c(Cc2ccc(F)cc2)c(=O)oc2cc(OC(=O)c3ccccc3)ccc12 [Compound 67, 4-Ethyl-3-(4-fluorobenzyl)-2-oxo-2H-chromen-7-yl benzoate] | 70 to 71 | – | 44.6 | 21.3 | 64.6 ± 1.74 | – | – | – | inactive | – | – | – | –
15 | Cc1c(Cc2ccc(F)cc2)c(=O)oc2cc(OC(=O)N(C)C)ccc12 [Compound G8935] | – | – | – | – | – | – | – | – | – | – | – | – | 0.3
16 | CC(=O)Oc1ccc2c(C)c(Cc3ccc(F)cc3)c(=O)oc2c1 [Compound 31, 3-(4-Fluorobenzyl)-4-methyl-2-oxo-2H-chromen-7-yl acetate] | – | 0.248 | 72.2 | 78.2 | 15.7 ± 1.18 | – | – | – | – | – | – | more efficiently than U0126 | –
17 | COc1ccc2c(C#N)c(C(=O)c3ccccc3)c(=O)oc2c1 [Compound 88, 3-Benzoyl-4-cyano-7-methoxycoumarin] | 175 to 176 | – | 32.4 | 22.9 | – | – | – | – | – | – | – | – | –
18 | CCCc1c(Cc2ccccc2)c(=O)oc2cc(OC(=O)N(C)C)ccc12 [Compound 16, 3-Benzyl-2-oxo-4-propyl-2H-chromen-7-yl dimethylcarbamate] | 117 to 118 | – | 70.9 | 95.4 | – | 1.03 | – | – | – | – | – | – | –
19 | CCCCC(=O)Oc1ccc2c(CC)c(Cc3ccc(F)cc3)c(=O)oc2c1 [Compound 52, 4-Ethyl-3-(4-fluorobenzyl)-2-oxo-2H-chromen-7-yl pentanoate] | 70 to 71 | – | 42.8 | 34 | – | – | – | – | inactive | – | – | – | –
20 | CCC(=O)Oc1ccc2c(CC)c(Cc3ccc(F)cc3)c(=O)oc2c1 [Compound 39, 4-Ethyl-3-(4-fluorobenzyl)-2-oxo-2H-chromen-7-yl propionate] | 97 to 98 | 0.14 | 75.4 | 76.3 | – | – | – | – | active | – | – | – | –
